In ChEMBL document CHEMBL3507680, “University of Dundee, Gates Library screen for HepG2 cell viability”:

Experiment: Human HepG2 cell viability assay in 384 well format
Type: toxicity, cell-based
Design: dose 125 nL, time 70.5 hour; cytotoxicity at 70.5 h: concentration not given beside the values
Conditions: HepG2 cells, read-out: Inhibition

SMILES	cytotoxicity at 70.5 h
Cn1ncc2c(N3CCN4CCCCC4C3)nc(C3CCCC3)nc21 (stereo not drawn)	-0.0598%
CSc1ccc(-c2nc(CN3CCC(CN)C3)c(C)o2)cc1 (stereo not drawn)	-3.18%
CNC(=O)c1cnn2c(C3CCCN3C)ccnc12 (stereo not drawn)	12.8%
CCn1nc2c(cc1=O)CN(Cc1nc(-c3ccoc3)no1)CC2	19.1%
CC(=O)N1CCCN(C(=O)c2cnn(C(C)(C)C)c2C)CC1	-10.1%
CCn1ccnc1CN1CCCC(CO)(Cc2cccc(OC)c2)C1 (stereo not drawn)	-14.1%
CC(C)COCC(NC(=O)c1ccncc1)c1ccco1 (stereo not drawn)	-4.28%
CCc1cc(N[C@H]2CC[C@@H](N)CC2)n2nc(C)c(C)c2n1	-7.71%
O=C1CC2(CCN(C(=O)c3ccncc3)CC2)Oc2c(Cl)cc(Cl)cc21	-5.1%
CC[C@@H]1N(Cc2nccs2)CCC[C@]12CCC(=O)N2C	9.06%
CS(=O)(=O)c1ncc(CN2CCN3CCCC3C2)n1CC1CCCCC1 (stereo not drawn)	-6.4%
CCC(C)(CC(=O)OC)NC(=O)c1ccc2[nH]ccc2c1 (stereo not drawn)	-10.1%
COc1ccnc(N2CCN(Cc3nc(-c4ccoc4)no3)CC2)c1	-0.129%
CCc1cnc(C)nc1N1CCS(=O)(=O)CC1	-7.02%
CCc1nc(C)ncc1C(=O)N1CC(C)CN(C)c2ccccc21 (stereo not drawn)	-7.55%
CCCn1cc(C(=O)NC(C)c2c(C)nn(CC)c2C)c(C)n1 (stereo not drawn)	-8.59%
CCc1ccc(CN2CCN(c3ncc(Cl)cn3)CC2)nc1	-5.54%
Cc1ccc(OCC(=O)N2CCOCC(O)(CN3CCCC3)C2)cc1C (stereo not drawn)	27.8%
O=C(C1CCOC1)N1CCC2(CC1)Cc1ccccc1CNC2=O (stereo not drawn)	-9.03%
O=S1(=O)CCC(n2cc(C3=CCN(CCN4CCCCC4)CC3)cn2)C1 (stereo not drawn)	-7.91%
CC(c1cccc(S(N)(=O)=O)c1)N(C)CCc1ccccc1 (stereo not drawn)	11.5%
Cc1cc(N2CCN(C(=O)Cc3ccc4c(c3)OCO4)CC2)cc(C)n1	-9.94%
COc1cnc(N2CCC(Oc3ccccc3OC)(C(=O)O)CC2)nc1	-3.07%

SMILES	cytotoxicity at 70.5 h
Fc1ccc(CN2CCCN(Cc3cscn3)CC2)cc1	23.4%
O=C(NC[C@H]1OC[C@@H](NC2CCOCC2)[C@@H]1O)C1CCCC1	-6.06%
COc1cccc2c1OCC(C(=O)NCCc1nc3c(s1)CCC3)C2 (stereo not drawn)	-5.62%
CC(CNC(=O)OC(C)(C)C)N(C)C(=O)COc1ccccc1C#N (stereo not drawn)	-12.1%
CN(C)CCCNCC1CCOC(C)(C)C1 (stereo not drawn)	-3.4%
CC(=O)N1CCC(c2cc(C(F)(F)F)n3ccnc3n2)CC1	5.43%
COc1cccc2c1N(C(=O)c1ccc(C)nc1)CCC2	4.1%
Cc1nc(NCC23CCCN2CCC3)cc(C2CCCNC2)n1 (stereo not drawn)	-4.8%
CS(=O)(=O)NC1CCCN(C(=O)NCc2ccccc2Cl)C1 (stereo not drawn)	-2.53%
O=C1CC2(CCN(CCO)C2)CN1c1cccc(F)c1 (stereo not drawn)	-10.9%
CC(C)(C)c1n[nH]c(C2CN(CC3CCC3)CCO2)n1 (stereo not drawn)	-0.868%
Cc1noc(C)c1-c1cccc(CC2CCN(C(=O)CCC(=O)O)C2)n1 (stereo not drawn)	-11.7%
Cc1nc(CN2CCO[C@H]3[C@H](OCC(=O)N(C)C)CC[C@@H]32)cs1	17.3%
O=C(O)CSc1nccc(-c2ccc3c(c2)OCO3)n1	-7.09%
COCC(=O)N1CCC2(CC1)CC(N1CCOCC1)c1ccc(C)cc12 (stereo not drawn)	0.692%
COCCOc1ccnc(-c2noc([C@@H]3CCCN3C3CCC3)n2)c1	-5.26%
O=C(NCc1ccccn1)[C@@H]1CCO[C@@H]2CCN(Cc3ccoc3)C[C@H]21	-1.45%
CC(=O)N1CC2(CCCN(Cc3ccc(Cl)cc3)C2)Cc2ccccc21 (stereo not drawn)	5.61%
Cc1cc(C)n(CC2CN(CC3CCCC3)CCO2)n1 (stereo not drawn)	-3.55%
COc1cccc(COCC(=O)NC(C)c2nnc3n2CCC3)c1 (stereo not drawn)	1.6%
COc1ccc(Br)cc1CC(=O)N1CCCC1	-5.85%
O=C(CCc1ccccn1)N1CCSC2(CCCCC2)C1	3.22%
CSCc1noc(CNC2CCCC(C)(C)C2)n1 (stereo not drawn)	-5.82%

SMILES	cytotoxicity at 70.5 h
COc1ccc(CN2CCCC2Cn2nc(C)nc2C)cc1F (stereo not drawn)	-18.3%
COCCn1ccc(NCc2sccc2C)n1	-3.13%
CCc1nn(C)c(Cl)c1CN1CCCC2(C1)CN(C)C(=O)O2 (stereo not drawn)	-11.8%
CC(C)c1noc(CCC(=O)N(CC2CCOC2)C2CC2)n1 (stereo not drawn)	-8.06%
Cc1c(I)cccc1C(=O)NCC1(CO)CC1	-7.8%
Cc1cc(C)n(C2CN(CC(O)c3ccc(F)cc3)C2)n1 (stereo not drawn)	-10.7%
Cc1nn(C)c2c(=O)n(C(C)C)c(NCC3CCCO3)nc12 (stereo not drawn)	-9.24%
CCCC(=O)N1CCC(C(=O)NCCN2CCC(C)CC2)CC1	-1.92%
O=C(CSc1nnc(N2CCOCC2)s1)NCc1cccs1	-2.54%
CCc1ncc2c(n1)CN(Cc1nnc(C)o1)CC2	-8.24%
O=C1NC2(CCN(c3ncccn3)CC2)CC1c1cccnc1 (stereo not drawn)	-7.58%
C[C@@H]1CN(Cc2cccnc2)C[C@]1(C)O	-15.2%
COc1ccc(CN2CCCC2)cc1Oc1ccc2c(c1)CC(CN)O2 (stereo not drawn)	-11.3%
O=C1CCOC[C@]2(CN(Cc3ccccc3)C[C@H]2c2cccc(F)c2)N1	-2.96%
CN(CC(=O)N1CCOCC(CO)C1)Cc1ccc(F)cc1 (stereo not drawn)	-12.7%
O=C(NCc1ccccn1)[C@@]12CCO[C@@H]1CCN(C1CCCC1)C2	-1.56%
Cn1ccnc1CN1CCN(c2ccc(C#N)cn2)CC1	-13.3%
N#Cc1cccnc1N1CCC(C2CCCCCN2C(=O)C2CC2)CC1 (stereo not drawn)	5.51%
Cc1ccnc(Cn2cc(-c3cccc(C(C)N(C)C)c3)nn2)c1 (stereo not drawn)	-6.95%
CCc1ccc(NC(=O)CCN2CC(n3nc(C)cc3C)C2)cc1	-1.14%
COc1cc(CN(C)[C@@H]2COC[C@H]2c2ccc(F)cc2)cc(OC)c1	0.803%
CN1CCCCC1c1ncc2c(n1)CCN(Cc1ccc(F)cc1)C2 (stereo not drawn)	-5.99%
Cn1nc(COc2cncnc2)c2c1CCN(Cc1ccccn1)C2	6.46%

SMILES	cytotoxicity at 70.5 h
CCc1nc(-c2noc3ccc(C(=O)N(C)CCOC)cc23)co1	-12.2%
Cc1ccc([C@]2(O)CC[C@H]3CN(Cc4cc(C)c(O)c(C)c4)C[C@H]32)nc1	30.6%
Cc1nn(CC(=O)N2CCN(Cc3cn(C)nc3C)CC2)cc1Br	25.1%
O=C(Cc1cccs1)N1CCC2(CC1)COCCN2CC1CC1	-8.87%
Cc1nc(C(C)(C)C)sc1C(=O)NCCNc1ncccn1	-8.27%
O=C(c1cccnc1-n1cncn1)N1CCN(C2CCCC2)CC1	-5.59%
CCNC(=O)c1ccc(NC(=O)N(C)Cc2cc(C)on2)cc1	-4.32%
CC(=O)c1cccc(-c2nc3c([nH]2)CCNC3)c1F	-13.2%
Cc1ccccc1-c1cc(C(=O)N2CCn3c(C)nnc3C2)[nH]n1	0.102%
CCc1nn(C)c(Cl)c1CN1CCC2(C1)CN(C)C(=O)O2 (stereo not drawn)	-17.2%
O=C(c1cc(-c2cccs2)on1)N1CCCCC1Cn1cccn1 (stereo not drawn)	-8.41%
COc1cccc(C(=O)C2CCCN(c3cc(C#N)ccn3)C2)c1 (stereo not drawn)	-10.3%
Cn1cc(C[C@H]2[C@H](N3CCOCC3)CCN2C(=O)c2ccco2)cn1	5.32%
N#Cc1cccc(CN2C[C@@H](NC(=O)C3CC3)[C@H]3OCCC[C@H]32)c1	-12.1%
O=C(Cc1csc(N2CCNC2=O)n1)NCC1(c2ccccc2)CC1	24.5%
Cn1cc(N2CCC(NC(=O)c3c(F)cccc3F)C2=O)cn1 (stereo not drawn)	-2.48%
O=C(NCC1CC1)c1cc(C2CC2)nc2onc(C3CCCNC3)c12 (stereo not drawn)	-7.5%
CC(C)CN1C(=O)C2(CCN(CC3CCOCC3)C2)c2ccccc21 (stereo not drawn)	-3.07%
CN(C)c1ccc(CCNC(=O)C2CCC(=O)N(C3CCCC3)C2)cc1 (stereo not drawn)	-8%
Cc1cnn(C2CN(Cc3nc(-c4ccccc4C)no3)C2)c1	11%
CN(C)C(=O)c1ccc2c(c1)N(C)C(CC(=O)NCc1ccno1)CO2 (stereo not drawn)	-4.48%
CSc1ccccc1C(=O)N(C)Cc1nncn1C(C)C	-0.541%
Cc1ccc(S(=O)(=O)CCC(=O)N(C)Cc2cnn(C)c2)cc1	-73.6%

SMILES	cytotoxicity at 70.5 h
CC(C)N1C[C@H](O)C[C@H]1c1nc(-c2ccc(OC(F)(F)F)cc2)no1	-3.17%
Cc1ccc(CNC(=O)C2c3c(ncn3C(C)C)CCN2S(C)(=O)=O)o1 (stereo not drawn)	-0.242%
CS(=O)(=O)N1CCc2ncc(CNC(=O)C3CCC3)n2CC1	-1.87%
N[C@@H]1c2ccccc2C2(CCN(C(=O)c3ccc(Cl)cn3)CC2)[C@H]1O	18.5%
CN1CCN(CCCN(C)S(=O)(=O)CC2CCCCC2)CC1	-3.5%
CC(C)CCN1C(=O)CC(N(C)Cc2nc3ccccc3c(=O)[nH]2)C1=O (stereo not drawn)	-6.43%
CCOc1ccc(NC(=O)N(CCC#N)Cc2ccccn2)cc1F	12%
CC(=O)NCCCC(=O)NC1(c2ccc(Cl)c(Cl)c2)CC1	2.93%
Oc1cc(C2CCCCN2CC2CC2)nc(-c2ccncc2)n1 (stereo not drawn)	-10.4%
CN1CCC2(CCN(C(=O)c3ccccc3)CC2)C1	31.4%
CN(C)CCN(C)C1CCN(C(C(=O)O)c2ccc(F)c(Cl)c2)CC1 (stereo not drawn)	5.36%
CCN1CCCC(O)(CNCc2ccccn2)C1 (stereo not drawn)	-8.08%
CC1c2cccn2CCN1C(=O)CCCc1nc(-c2ccco2)no1 (stereo not drawn)	-7.42%
O=C(C(CNCc1ccsc1)c1ccccc1)N1CCOCC1 (stereo not drawn)	-2.8%
Cc1cnc(CN2CCCC(c3nc4ccccc4n3C(C)C)C2)o1 (stereo not drawn)	20.6%
c1ccc(CCN2CCN(C3CCOC4(CCOCC4)C3)CC2)cc1 (stereo not drawn)	-5.08%
Cc1ccc(S(=O)(=O)N2CCC(Oc3ccccn3)CC2)c(C)c1	-19.6%
Cc1cn(-c2ccccc2)nc1NS(=O)(=O)c1cc(C(=O)O)ccc1Cl	-9.13%
CCc1cnc(N)nc1NCCn1cc(Cl)cn1	-6.52%
CC(C#N)CN(C)C(=O)CCNC(=O)OCC(F)(F)F (stereo not drawn)	-0.113%
O=C(c1sccc1C1CC1)N1CCN(c2ncccn2)CC1	-0.605%
